The NIST ThermoML archive (doi:10.1021/je900283v)
Numbers after ± are expanded uncertainties.

Legend:
[1] = Crystal; DTA
[2] = Molar enthalpy of transition or fusion; conditions: Crystal; DSC

Normal melting temperature [1]: 194.00 ± 1 °C | Molar enthalpy of transition or fusion [2]: 12.8 ± 0.335 kcal/mol
Compound: CC[C@@]1(O)C(=O)OCc2c1cc1n(c2=O)Cc2cc3cc(O)ccc3nc2-1
